Experimental data: patent US20250199015A1, “CYCLIN-DEPENDENT KINASE 2 INHIBITORS FOR MEDICAL TREATMENT” (INCYCLIX BIO, LLC, priority 2022, published 2025)

Key:
γ-H2AX in H526 cells = assay: γ-H2AX flow cytometry; type: cell-based, human
Method: (§1) The H526 human lung carcinoma cell line was grown in RPMI-1640/1× Glutamax/10% fetal bovine serum and was plated at 200,000 cells/well in Corning 6 cm tissue culture treated plates. Cells were incubated at 37° C. for 24 hours prior to addition of the first treatment. […] Cells were treated to 24 or 48 hours post-initial treatment, with 10 μM EdU added 1 hour prior to collection. Cells were collected and fixed in 1% paraformaldehyde. Cells were incubated with pacific blue azide dye as described by Thermo Scientific. Cells were then incubated with antibody against γ-H2AX at a ratio of 1:50 before incubation with FarRed dye and RNase. Cells were analyzed on a BD Celesta and data compiled using FloJo and GraphPad.
as §1, with “24” for “24 or 48”, “added at” for “added 1”, “hour 23 (FIG. 28A).” for “hour prior to collection.”, “Scientific. […]” for “Scientific. Cells were then incubated with antibody against γ-H2AX at a ratio of 1:50 before incubation with FarRed dye and RNase.”

OVCAR-3 xenograft tumor = OVCAR-3 xenograft tumor fragment model (tumor growth, survival); type: in vivo, mice; settings: 100 mpk twice daily
Method: OVCAR-3 xenograft tumor fragments were harvested from host animals and implanted into immune-deficient mice (CR1:NU(NCr)-Fox1^nu). The study was initiated at a mean tumor volume of approximately 175-300 mm^3. […] The test agents were delivered at 10 mL/kg by oral gavage. […] Individual replicate values over the course of the experiment are shown in FIG. 19A, extended out to 42 days post-study initiation.

[1] = tested on: HCC-1569 cell loaded Hollow Fibers; assay: Mouse hollow fiber assay (CellTiter Glo); type: in vivo, mice; settings: 75, 100, 150 mg/kg twice daily, Day 16
Method: The mouse hollow fiber assay was conducted using three tumor cell lines, OVCAR-3 (ovarian), MKN-1 (gastric), and HCC-1569 (breast), 1e7 OVCAR-3, 5e6 MKN-1, and 1e7 HCC-1569 cells were loaded into Hollow Fibers, placed in cell culture dishes containing RPMI-1640 with 20% FCS and 1% penicillin/streptomycin, and were equilibrated in an incubator at 37 C, 5% CO2 overnight. On Day 0, three fibers were implanted in two different compartments: subcutaneous and intraperitoneal of twenty-four female NMRI nude mice ages 4-5 weeks. […] Female NMRI nude mice were implanted both subcutaneously and intraperitoneally with HCC-1569, MKN1, and OVCAR3 tumor cell-loaded Hollow Fibers on Day 0. The number of animals alive on Day 0 (implantation) and on Day 16 (necropsy) in each group is shown in parentheses in the legend.
HCC-1569 cell loaded Hollow Fibers were implanted both subcutaneously and intraperitoneally into female NMRI nude mice on Day 0. Hollow Fibers were collected during necropsy on Day 16 and analyzed using a CellTiter Glo® assay.

[2] = tested on: Palbo-S MCF7 parental cells; assay: Cell cycle by EdU flow cytometry; type: cell-based, human; settings: 10 nM to 10 μM, 24 hours
Method: (§2) The Palbo-sensitive (Palbo-S) MCF7 parental and Palbo-R daughter cells (MCF7 PDRC15-1) human […] carcinoma cell line was grown in MEM/1× Glutamax/1× Insulin/10% fetal bovine serum with the PDR cells grown in the presence of 1 μM palbociclib. Cells were plated at 100,000 cells/well in Corning 6 cm tissue culture treated plates. […] Cells were treated for 24 hours and 10 μM EdU was added 1 hour prior to collection. Cells were collected and fixed in 1% paraformaldehyde. Cells were incubated with Alexa488 azide dye as described by Thermo Scientific. Cells were then incubated with FarRed dye and RNase. Cells were analyzed on a BD Celesta and data compiled using FloJo and GraphPad. […] The resistant Palbo-R MCF7 cells have a much lower percent of cells in S phase in general.

[3] = tested on: Palbo-R MCF7 PDRC15-1 cells; assay: Cell cycle by EdU flow cytometry; type: cell-based, human; settings: with 1 μM palbociclib, 24 hours
Method: as §2

H82 (NCIH82) cells = assay: CellTiter Glo cell proliferation assay; type: cell-based; settings: six days
Method: Plates returned to incubator for six additional days. On day six post dosing, plates were removed and treated with CellTiter Glo reagent following manufacturer's specifications. Plates incubated 45 minutes at room temperature and run on a Biotek luminometer with 1 sec/well detection. Results were converted to Microsoft Excel and transferred to GraphPad Prism for analysis.

FUOV-1 cells = assay: CellTiter-Glo cell proliferation assay; type: cell-based; settings: Homo sapiens, 144 h; 6 days; read-out: IC50 in FUOV1 cells
Method: The Kuramochi human ovarian carcinoma cell line was grown in RPMI-1640/1× Glutamax/10% fetal bovine serum and the FUOV-1 human ovarian carcinoma cell line was grown in DMEM/F12/1× Glutamax/10% fetal bovine serum and both were plated at 1,000 cells/well in Corning 96 well white wall/clear bottom tissue culture treated plates. […] Plates were removed from incubator at each specified timepoint and treated with CellTiter-Glo (Promega, Inc) following manufacturer specifications. Plates were then read on CLARIOstar luminometer with 1 sec/well integration. Results were converted to Microsoft Excel and transferred to GraphPad Prism for Analysis (FIG. 16A-B).

PA-1 cells = assay: CellTiter Glo cell proliferation assay; type: cell-based; settings: lacking cyclin E amplification
Method: (§3) Plates were returned to the incubator for six additional days. On day six post dosing, plates were removed and treated with CellTiter Glo reagent following manufacturer's specifications. Plates were incubated 45 minutes at room temperature and run on Biotek luminometer with 1 sec/well detection. Results were converted to Microsoft Excel and transferred to Graphpad Prism for analysis. […] These cell types are distinguished by either gained of cyclin E1 expression or activation (Kuramochi) or intrinsic amplification of cyclin E1 (OVCAR-3, COV318).

SKOV3 cells = assay: CellTiter Glo cell proliferation assay; type: cell-based; settings: lacking cyclin E amplification
Method: as §3

NS(=O)(=O)c1ccc(Nc2ncc3cc4n(c3n2)C2(CCCCC2)C(=O)NN4)cc1 [Compound I]
γ-H2AX signal, combination with cisplatin (γ-H2AX in H526 cells; 300 nM Compound I + 300 nM cisplatin): roughly double the signal
γ-H2AX signal, Compound I alone (γ-H2AX in H526 cells; 30 to 1000 nM, 24 or 48 hours): increased yH2AX starting at 100 nM
overall survival (OVCAR-3 xenograft tumor): greatest overall survival
tumor volume (OVCAR-3 xenograft tumor; oral gavage, 28 days): reduced tumor volume the most among all treatment conditions
tumor bioluminescence signal (CellTiter Glo) of Hollow Fibers [1]: significant reduction
cell cycle sensitivity [2]: not sensitive to Compound I
cell cycle arrest [3]: arrested during the G1 phase at 30, 100, 300 nM
inhibition compared with palbociclib (H82 (NCIH82) cells): low nanomolar concentrations
IC50 (FUOV-1 cells): 16 nM
inhibition compared with palbociclib (PA-1 cells): comparable to palbociclib alone
inhibition compared with palbociclib (SKOV3 cells): comparable to palbociclib alone
